The structures appear in SMILES notation. In brackets after ≈: the same amount, converted by molar mass.

In test [1] the test system is E. coli ATCC 25922 (AECO001). Description: MIC assay, CLSI broth microdilution. The class given is cell-based. As to conditions: Escherichia coli, ATCC25922, read-out: MIC AECO001. An outline of the steps: (§1)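 Broth microdilution per CLSI M7-A7, with serial two-fold compound dilutions in Mueller Hinton Broth mixed 1:1 with inoculum. Colonies from a previous-day agar plate were suspended in saline to a final 5×10^5 CFU/mL. Plates were incubated 20 hours at 35° C. in ambient air.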

The subject of test [2] is P. aeruginosa ATCC 27853 (APAE001). Description: MIC assay, CLSI broth microdilution. The class given is cell-based. As to conditions: Pseudomonas aeruginosa, ATCC27853, read-out: MIC APAE001. An outline of the steps: as §1

As for `CN[C@@H]1[C@@H](O)[C@@H](O[C@@H]2[C@@H](O)[C@H](O[C@H]3OC(CNCCCC(O)CN)=CC[C@H]3N)[C@@H](N)C[C@H]2NC(=O)[C@@H](O)CN)OC[C@]1(C)O` (stereo partly drawn) [Example 80, 6′-(4-Hydroxy-5-amino-pentyl)-1-(3-amino-2(S)-hydroxy-propionyl)-sisomicin], the MIC in test [1] and in test [2] was under 1 µg/mL each time.
In the case of `CN[C@@H]1[C@@H](O)[C@@H](O[C@@H]2[C@@H](O)[C@H](O[C@H]3OC(CNCCNC4CNC4)=CC[C@H]3N)[C@@H](N)C[C@H]2NC(=O)[C@@H](O)CN)OC[C@]1(C)O` [Example 81, 6′-(N-(Azetidin-3-yl)-2-amino-ethyl)-1-(3-amino-2(S)-hydroxy-propionyl)-sisomicin], the MIC is 1 to 16 µg/mL (≈ 1.58 to 25.3 µM) in test [1] and over 16 µg/mL in test [2].
For `CN[C@@H]1[C@@H](O)[C@@H](O[C@@H]2[C@@H](O)[C@H](O[C@H]3OC(CNCC(O)CN)=CC[C@H]3N)[C@@H](N)C[C@H]2NC(=O)C(O)C2CNC2)OC[C@]1(C)O` (some centres unmarked) [Example 82, 6′-(2-Hydroxy-3-amino-propyl)-1-(2-(azetidin-3-yl)-2-hydroxy-acetyl)-sisomicin] the same measures were 1 to 16 µg/mL (≈ 1.58 to 25.2 µM) and over 16 µg/mL.
On the same counts, the results for `CN[C@@H]1[C@@H](O)[C@@H](O[C@@H]2[C@@H](O)[C@H](O[C@H]3OC(CNCC4(O)CC(N)C4)=CC[C@H]3N)[C@@H](N)C[C@H]2NC(=O)C(O)C2CNC2)OC[C@]1(C)O` (some centres unmarked) [Example 83, 6′-(Methyl-3-amino-1-hydroxy-cyclobutyl)-1-(2-(azetidin-3-yl)-2-hydroxy-acetyl)-sisomicin] are 1 to 16 µg/mL (≈ 1.52 to 24.3 µM) and over 16 µg/mL.
For `CN[C@@H]1[C@@H](O)[C@@H](O[C@@H]2[C@@H](O)[C@H](O[C@H]3OC(CN)=CC[C@H]3NCC3CCNC3)[C@@H](N)C[C@H]2NC(=O)[C@@H](O)CCN)OC[C@]1(C)O` (stereo partly drawn) [Example 84, 2′-(Methyl-pyrrolidin-3-yl)-1-(4-amino-2(S)-hydroxy-butyryl)-sisomicin] the same measures were under 1 µg/mL and 1 to 16 µg/mL (≈ 1.58 to 25.3 µM).
On to `CN[C@@H]1[C@@H](O)[C@@H](O[C@@H]2[C@@H](O)[C@H](O[C@H]3OC(CN)=CC[C@H]3NCC3CCCN3)[C@@H](N)C[C@H]2NC(=O)[C@@H](O)CCN)OC[C@]1(C)O` (stereo partly drawn) [Example 85, 2′-(Methyl-pyrrolidin-2-yl)-1-(4-amino-2(S)-hydroxy-butyryl)-sisomicin], for which the MIC in test [1] is under 1 µg/mL; in test [2] it was 1 to 16 µg/mL (≈ 1.58 to 25.3 µM).
As to `CNCC(=O)N[C@@H]1CC=C(CN)O[C@@H]1O[C@H]1[C@H](O)[C@@H](O[C@H]2OC[C@](C)(O)[C@H](NC)[C@H]2O)[C@H](NC(=O)[C@@H](O)CCN)C[C@@H]1N` [Example 86, 2′-(N-methyl-amino-acetyl)-1-(4-amino-2(S)-hydroxy-butyryl)-sisomicin], the MIC in test [1] and in test [2] was 1 to 16 µg/mL (≈ 1.61 to 25.8 µM) each time.
Turning to `CN[C@@H]1[C@@H](O)[C@@H](O[C@@H]2[C@@H](O)[C@H](O[C@H]3OC(CN)=CC[C@H]3NC(=O)CN)[C@@H](N)C[C@H]2NC(=O)[C@@H](O)CCN)OC[C@]1(C)O` [Example 87, 2′-(2-Amino-acetyl)-1-(4-amino-2(S)-hydroxy-butyryl)-sisomicin], the MIC in test [1] and in test [2] was 1 to 16 µg/mL (≈ 1.65 to 26.4 µM) in each case.
On to `CN[C@@H]1[C@@H](O)[C@@H](O[C@@H]2[C@@H](O)[C@H](O[C@H]3OC(CN)=CC[C@H]3NC(=O)C(C)N)[C@@H](N)C[C@H]2NC(=O)[C@@H](O)CCN)OC[C@]1(C)O` (stereo partly drawn) [Example 88, 2′-(2-Amino-propionyl)-1-(4-amino-2(S)-hydroxy-butyryl)-sisomicin], for which the MIC in test [1] and in test [2] was 1 to 16 µg/mL (≈ 1.61 to 25.8 µM) throughout.
With `CN[C@@H]1[C@@H](O)[C@@H](O[C@@H]2[C@@H](O)[C@H](O[C@H]3OC(CN)=CC[C@H]3NC(=O)C(O)CN)[C@@H](N)C[C@H]2NC(=O)[C@@H](O)CCN)OC[C@]1(C)O` (stereo partly drawn) [Example 89, 2′-(3-Amino-2-hydroxy-propionyl)-1-(4-amino-2(S)-hydroxy-butyryl)-sisomicin], the MIC was under 1 µg/mL in test [1] and 1 to 16 µg/mL (≈ 1.57 to 25.2 µM) in test [2].
For `CN[C@@H]1[C@@H](O)[C@@H](O[C@@H]2[C@@H](O)[C@H](O[C@H]3OC(CN)=CC[C@H]3NC(=O)C3CCCN3)[C@@H](N)C[C@H]2NC(=O)[C@@H](O)CCN)OC[C@]1(C)O` (some centres unmarked) [Example 90] the same measures were under 1 µg/mL and 1 to 16 µg/mL (≈ 1.55 to 24.8 µM).
On the same counts, the results for `CN[C@@H]1[C@@H](O)[C@@H](O[C@@H]2[C@@H](O)[C@H](O[C@H]3OC(CN)=CC[C@H]3NCCCN)[C@@H](N)C[C@H]2NC(=O)[C@@H](O)CCN)OC[C@]1(C)O` [Example 91, 2′-(3-Amino-propyl)-1-(4-amino-2(S)-hydroxy-butyryl)-sisomicin] are under 1 µg/mL and under 1 µg/mL.
On the same counts, the results for `CN[C@@H]1[C@@H](O)[C@@H](O[C@@H]2[C@@H](O)[C@H](O[C@H]3OC(CN)=CC[C@H]3NC(=O)CC3CNCCO3)[C@@H](N)C[C@H]2NC(=O)[C@@H](O)CCN)OC[C@]1(C)O` (stereo partly drawn) [Example 92, 2′-(Morpholin-2-yl-acetyl)-1-(4-amino-2(S)-hydroxy-butyryl)-sisomicin] are under 1 µg/mL and over 16 µg/mL.
For `CN[C@@H]1[C@@H](O)[C@@H](O[C@@H]2[C@@H](O)[C@H](O[C@H]3OC(CN)=CC[C@H]3NS(=O)(=O)CCN)[C@@H](N)C[C@H]2NC(=O)[C@@H](O)CCN)OC[C@]1(C)O` [Example 93, 2′-(2-Amino-ethyl-sulfonamide)-1-(4-amino-2(S)-hydroxy-butyryl)-sisomicin], the MIC in test [1] is under 1 µg/mL; in test [2], 1 to 16 µg/mL (≈ 1.52 to 24.4 µM).
For `CN[C@@H]1[C@@H](O)[C@@H](O[C@@H]2[C@@H](O)[C@H](O[C@H]3OC(CN)=CC[C@H]3NCC(C)(C)CN(C)C)[C@@H](N)C[C@H]2NC(=O)[C@@H](O)CCN)OC[C@]1(C)O` [Example 94, 2′-(N,N-Dimethyl-2,2-dimethyl-3-amino-propyl)-1-(4-amino-2(S)-hydroxy-butyryl)-sisomicin] the same measures were 1 to 16 µg/mL (≈ 1.51 to 24.2 µM) and over 16 µg/mL.
As for `CN[C@@H]1[C@@H](O)[C@@H](O[C@@H]2[C@@H](O)[C@H](O[C@H]3OC(CN)=CC[C@H]3NC[C@H](C)N)[C@@H](N)C[C@H]2NC(=O)[C@@H](O)CCN)OC[C@]1(C)O` [Example 95, 2′-(2(S)-Amino-propyl)-1-(4-amino-2(S)-hydroxy-butyryl)-sisomicin], the MIC in test [1] was under 1 µg/mL; in test [2], over 16 µg/mL.
Take `CN[C@@H]1[C@@H](O)[C@@H](O[C@@H]2[C@@H](O)[C@H](O[C@H]3OC(CN)=CC[C@H]3NCC(N)CO)[C@@H](N)C[C@H]2NC(=O)[C@@H](O)CCN)OC[C@]1(C)O` (stereo partly drawn) [Example 97, 2′-(2-Amino-propanol)-1-(4-amino-2(S)-hydroxy-butyryl)-sisomicin]: the values for the minimum inhibitory concentration (MIC) in test [1] and in test [2] were under 1 µg/mL and 1 to 16 µg/mL (≈ 1.61 to 25.7 µM), respectively.
Turning to `CN[C@@H]1[C@@H](O)[C@@H](O[C@@H]2[C@@H](O)[C@H](O[C@H]3OC(CN)=CC[C@H]3NCCO)[C@@H](N)C[C@H]2NC(=O)[C@@H](O)CCN)OC[C@]1(C)O` [Example 98, 2′-(2-Hydroxy-ethyl)-1-(4-amino-2(S)-hydroxy-butyryl)-sisomicin], the MIC in test [1] and in test [2] was 1 to 16 µg/mL (≈ 1.69 to 27 µM) each time.
As for `CN[C@@H]1[C@@H](O)[C@@H](O[C@@H]2[C@@H](O)[C@H](O[C@H]3OC(CN)=CC[C@H]3NC(=O)C(N)CCCN)[C@@H](N)C[C@H]2NC(=O)[C@@H](O)CCN)OC[C@]1(C)O` (stereo partly drawn) [Example 99, 2′-(2,5-Diamino-pentoyl)-1-(4-amino-2(S)-hydroxy-butyryl)-sisomicin], the MIC in test [1] and in test [2] was 1 to 16 µg/mL (≈ 1.51 to 24.1 µM) throughout.
In the case of `CN[C@@H]1[C@@H](O)[C@@H](O[C@@H]2[C@@H](O)[C@H](O[C@H]3OC(CN)=CC[C@H]3NCC(O)CO)[C@@H](N)C[C@H]2NC(=O)[C@@H](O)CCN)OC[C@]1(C)O` (stereo partly drawn) [Example 100, 2′-(2-Hydroxy-propanol)-1-(4-amino-2(S)-hydroxy-butyryl)-sisomicin], the MIC is 1 to 16 µg/mL (≈ 1.61 to 25.7 µM) in test [1] and over 16 µg/mL in test [2].
On to `CN[C@@H]1[C@@H](O)[C@@H](O[C@@H]2[C@@H](O)[C@H](O[C@H]3OC(CN)=CC[C@H]3NCC(O)CN)[C@@H](N)C[C@H]2NC(=O)[C@@H](O)CCN)OC[C@]1(C)O` (stereo partly drawn) [Example 101, 2′-(2-Hydroxy-3-amino-propyl)-1-(4-amino-2(S)-hydroxy-butyryl)-sisomicin], for which the MIC was under 1 µg/mL in test [1] and 1 to 16 µg/mL (≈ 1.61 to 25.7 µM) in test [2].
On the same counts, the results for `CN[C@@H]1[C@@H](O)[C@@H](O[C@@H]2[C@@H](O)[C@H](O[C@H]3OC(CN)=CC[C@H]3NCCCCN)[C@@H](N)C[C@H]2NC(=O)[C@@H](O)CCN)OC[C@]1(C)O` [Example 102, 2′-(4-Amino-butyl)-1-(4-amino-2(S)-hydroxy-butyryl)-sisomicin] are under 1 µg/mL and 1 to 16 µg/mL (≈ 1.61 to 25.8 µM).
`CN[C@@H]1[C@@H](O)[C@@H](O[C@@H]2[C@@H](O)[C@H](O[C@H]3OC(CN)=CC[C@H]3NC[C@H]3C[C@H](N)C3)[C@@H](N)C[C@H]2NC(=O)[C@@H](O)CCN)OC[C@]1(C)O` [Example 104, 2′-(Methyl-trans-3-amino-cyclobutyl)-1-(4-amino-2(S)-hydroxy-butyryl)-sisomicin]: the MIC in test [1] is under 1 µg/mL; in test [2] it was 1 to 16 µg/mL (≈ 1.58 to 25.3 µM).
On the same counts, the results for `CN[C@@H]1[C@@H](O)[C@@H](O[C@@H]2[C@@H](O)[C@H](O[C@H]3OC(CNC(=N)N)=CC[C@H]3NC(=N)N)[C@@H](N)C[C@H]2N)OC[C@]1(C)O` [Example 105, 6′,2′-bis-Guanidinium-sisomicin] are over 16 µg/mL and over 16 µg/mL.
For `CN[C@@H]1[C@@H](O)[C@@H](O[C@@H]2[C@@H](O)[C@H](O[C@H]3OC(CNCCO)=CC[C@H]3NC(=N)N)[C@@H](N)C[C@H]2N)OC[C@]1(C)O` [Example 106, 6′-(2-Hydroxy-ethyl)-2′-guanidinium-sisomicin] the same measures were under 1 µg/mL and 1 to 16 µg/mL (≈ 1.87 to 30 µM).

Source of the values: US20190374563A1, “TREATMENT OF KLEBSIELLA PNEUMONIAE INFECTIONS WITH ANTIBACTERIAL AMINOGLYCOSIDE COMPOUNDS” (Achaogen, Inc., priority 2009, published 2019).
